In ChEMBL document CHEMBL5244241, “Pyrimidine: A promising scaffold for optimization to develop the inhibitors of ABC transporters” (Eur J Med Chem, 2020):

Legend:
[1] = Oral bioavailability in BALB/c mouse at 50 mg/kg, […] measured upto 24 hrs relative to control; type: ADME, organism-based; conditions: in vivo
[2] = system: K562/A02; assay: Reversal of doxorubicin-induced multidrug resistance in human K562/A02 cells assessed as reversal fold of doxorubicin cytotoxicity by MTT assay; type: functional
[3] = target: T1, ATP-dependent translocase ABCB1 (Homo sapiens, UniProt P08183); assay: Inhibition of ABCB1 (unknown origin)
T1 sequence (P08183 whole entry): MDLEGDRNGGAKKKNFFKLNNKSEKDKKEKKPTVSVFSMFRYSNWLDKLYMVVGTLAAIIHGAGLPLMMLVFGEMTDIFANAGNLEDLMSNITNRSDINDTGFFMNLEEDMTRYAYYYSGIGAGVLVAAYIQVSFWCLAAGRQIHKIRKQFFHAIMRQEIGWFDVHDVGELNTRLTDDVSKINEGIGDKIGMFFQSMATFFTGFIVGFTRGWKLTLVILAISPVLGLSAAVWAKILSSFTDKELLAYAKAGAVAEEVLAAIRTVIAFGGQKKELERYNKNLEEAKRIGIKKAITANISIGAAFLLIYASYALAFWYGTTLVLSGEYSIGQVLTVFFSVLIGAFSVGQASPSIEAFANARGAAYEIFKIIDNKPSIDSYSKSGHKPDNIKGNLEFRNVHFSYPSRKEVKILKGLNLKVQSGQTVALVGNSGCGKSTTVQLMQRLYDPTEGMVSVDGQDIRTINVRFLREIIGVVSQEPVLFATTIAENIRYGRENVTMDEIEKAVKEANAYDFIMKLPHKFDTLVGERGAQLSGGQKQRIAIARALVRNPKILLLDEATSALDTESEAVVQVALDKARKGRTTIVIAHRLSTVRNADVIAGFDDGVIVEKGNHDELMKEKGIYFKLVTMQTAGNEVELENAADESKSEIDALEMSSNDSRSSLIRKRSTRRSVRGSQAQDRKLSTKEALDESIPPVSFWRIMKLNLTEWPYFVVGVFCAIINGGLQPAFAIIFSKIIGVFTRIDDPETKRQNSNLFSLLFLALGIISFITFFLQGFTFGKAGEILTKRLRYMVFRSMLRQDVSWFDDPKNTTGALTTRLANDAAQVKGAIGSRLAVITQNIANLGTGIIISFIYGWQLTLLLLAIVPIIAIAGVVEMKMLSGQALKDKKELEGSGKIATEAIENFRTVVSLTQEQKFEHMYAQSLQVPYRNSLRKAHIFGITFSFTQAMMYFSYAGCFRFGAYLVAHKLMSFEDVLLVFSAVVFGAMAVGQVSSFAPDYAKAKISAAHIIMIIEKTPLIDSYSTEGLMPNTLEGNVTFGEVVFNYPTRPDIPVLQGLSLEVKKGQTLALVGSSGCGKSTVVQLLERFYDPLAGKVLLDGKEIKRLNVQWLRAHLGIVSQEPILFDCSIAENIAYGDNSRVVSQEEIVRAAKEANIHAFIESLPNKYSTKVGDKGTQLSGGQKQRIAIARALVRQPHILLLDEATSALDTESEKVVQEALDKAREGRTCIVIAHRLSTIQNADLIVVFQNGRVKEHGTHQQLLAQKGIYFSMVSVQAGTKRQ

[4] = target: T1, ATP-dependent translocase ABCB1; assay: Inhibition of P-gp (unknown origin) mediated ATP hydrolysis

| Compound | Ratio [2] | further results |
| --- | --- | --- |
| NC(=O)c1c2n(c3c(N4CCN(CCc5ccc(F)c(F)c5)CC4)ncnc13)CCCC2 | – | bioavailability [1]: > 50% |
| CCCCCCCCCCCCCCCCC(=O)CC(CCCCCCCC)n1cnc2c(N)ncnc21 (stereo unspecified) | 1.09 | – |
| CCCCC(CC(C)=O)n1cnc2c(N)ncnc21 (stereo unspecified) | 1.09 | – |
| CCCCCC(CC(C)=O)n1cnc2c(N)ncnc21 (stereo unspecified) | 1.09 | – |
| O=[N+]([O-])c1cc(Nc2nc(-c3ccccc3)nc3ccccc23)ccc1O | – | IC50 [3]: 0.08 µM |
| Nc1ncnc2c1ncn2[C@@H]1O[C@H](COC(=O)c2ccc(S(=O)(=O)F)cc2)[C@@H](O)[C@H]1O | – | IC50 [4]: 210 µM |
